Results taken from patent US20260049072A1, “HETEROCYCLIC COMPOUND FOR INDUCING DEGRADATION OF MUTANT KRAS PROTEIN” (Astellas Pharma Inc., priority 2022, published 2026).
Read-outs that look alike come from different tables or passages of the source.

Key:
RAS G12V = target: T1, RAS G12V (Homo sapiens, UniProt P01116, G12V); experiment: RAS G12V degradation activity, Cell ELISA, PA-TU-8902; format: cell-based; details: PA-TU-8902 cells, 24 hours, 100% = Example compound 17 at 1 μM; read-out: DC50 (RAS G12V 50% degradation value)
T1 construct: host or cells: PA-TU-8902 human pancreatic cancer cells
T1 sequence (P01116 1-188 isoform P01116-2 G12V): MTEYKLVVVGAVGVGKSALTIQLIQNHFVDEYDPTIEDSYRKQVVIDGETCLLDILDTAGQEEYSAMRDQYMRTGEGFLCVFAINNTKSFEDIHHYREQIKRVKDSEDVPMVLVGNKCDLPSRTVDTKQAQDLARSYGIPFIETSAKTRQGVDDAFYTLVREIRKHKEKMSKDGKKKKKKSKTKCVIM
Description: Test Example 1-1: Evaluation of RAS G12V Degradation Activity on Human KRAS G12V Mutant-Positive Pancreatic Cancer Line PA-TU-8902
The RAS G12V degradation activities of subject compounds were evaluated by measuring the expression levels of RAS G12V by a Cell ELISA method.
PA-TU-8902 cells (DSMZ, ACC 179) were seeded at 36 μL per well on a 384-well plate (from Greiner bio-one) to give 1.5×10^4 cells per well. As for the cell culture conditions, DMEM medium (from Sigma-Aldrich) containing 10% fetal bovine serum (from Cytiva) was used in the presence of 5% CO2 at 37° C.
The next day, the subject compounds (10 points having final concentrations in the range of 3 μM to 0.1 nM), Example compound 17 of a final concentration of 1 μM as a positive control and dimethyl sulfoxide (DMSO), which was the solvent for the subject compounds, as a negative control were diluted 100-fold with a fresh medium and were each added at 4 μL per well, followed by culturing for 24 hours.
The next day, the culture supernatant was removed, and a 4% paraformaldehyde phosphate buffer solution (from FUJIFILM Wako) was added at 20 μL per well. The plate was allowed to stand for 30 minutes at room temperature to thus immobilize the cells. Then, the supernatant was removed, and 0.1% Triton X-100 (from Amersham Biosciences)-containing Phosphate buffered saline (PBS) was added at 20 μL per well. After allowing the plate to stand at room temperature for 10 minutes, the supernatant was removed, and the wells were washed twice in total by adding PBS at 25 μL per well and removing the supernatant. The washing operations below were performed in the same manner. Next, the supernatant was removed, and 0.5% sodium dodecyl sulfate (SDS; from ThermoFisher Scientific)-containing PBS was added at 20 μL per well. After allowing the plate to stand at room temperature for 10 minutes, the plate was centrifuged to remove the supernatant. After washing with PBS, the supernatant was removed by centrifugation, and a blocking solution (PVDF Blocking Reagent for Can Get Signal; from TOYOBO) was added at 20 μL per well. After allowing the plate to stand for 30 minutes at room temperature, the supernatant was removed by centrifugation, and a solution obtained by diluting an anti-Ras (G12V Mutant Specific) antibody (Ras (G12V Mutant Specific) (D2H12) Rabbit mAb; from Cell Signaling Technology; 500-fold dilution) and an anti-3-actin antibody (Anti-beta Actin antibody; from Abcam; 5,000-fold dilution) with Can Get Signal Solution 2 (from TOYOBO) was added at 15 μL per well as primary antibodies. The plate was allowed to stand overnight at 4° C.
The next day, the supernatant was removed by centrifugation, and the plate was washed with PBS. The supernatant was removed by centrifugation, and a solution obtained by diluting an anti-rabbit IgG antibody (IRDye 800CW Goat anti-Rabbit IgG; from LI-COR Biosciences) and an anti-mouse IgG antibody (IRDye 680RD Donkey anti-Mouse IgG; from LI-COR Biosciences) 1,000-fold with Can Get Signal Solution 2 was added at 15 μL per well as secondary antibodies. After allowing the plate to stand at room temperature for an hour, the supernatant was removed by centrifugation, and the plate was washed with PBS. After removing the supernatant, the plate was dried as it was with air at room temperature for two hours or more, and the 700-nm and 800-nm fluorescent signals were measured with Aerius (from LI-COR Biosciences).
With the RAS G12V signaling value at the time of addition of DMSO corrected with the signaling value of 3-actin taken as 0% and with the RAS G12V signaling value at the time of addition of Example compound 17 of a final concentration of 1 μM taken as 100%, the RAS G12V degradation rates were calculated. The 50% degradation values (DC50) were calculated by Sigmoid-Emax model nonlinear regression analysis.

AsPC-1 cells = experiment: Non-anchorage-dependent cell growth inhibition (spheroid 3D culture), AsPC-1; format: cell-based; details: Homo sapiens, ASPC1, 144 h, read-out: AsPC-1 IC50
Description: Test Example 3: Evaluation of Non-Anchorage-Dependent Cell Growth Inhibitory Activity on Human KRAS G12V Mutant-Positive Pancreatic Cancer Line PA-TU-8902, Human KRAS G12D Mutant-Positive Pancreatic Cancer Line AsPC-1 or Human KRAS G12C Mutant-Positive Pancreatic Cancer Line MIA PaCa-2
The non-anchorage-dependent cell growth inhibitory activities of subject compounds were evaluated by spheroid 3D cell culture.
PA-TU-8902 cells, AsPC-1 cells or MIA PaCa-2 cells (RIKEN BRC, RCB2094) were seeded at 36 µL/well on a low-cell-adhesive round bottom 384-well plate (Prime Surface: from Sumitomo Bakelite) to give 5×10^2 cells per well. The PA-TU-8902 cells were under the same conditions as in Test Example 1-1, and the AsPC-1 cells were under the same conditions as in Test Example 1-2. For the MIA PaCa-2 cells, RPMI-1640 medium containing 10% fetal bovine serum was used in the presence of 5% CO2 at 37° C.
The next day, the subject compounds (6-9 points having final concentrations in the range of 3 μM to 0.3 nM) and DMSO, which was the solvent for the subject compounds, as a negative control were diluted 100-fold with a fresh medium and were each added at 4 μL per well. After culturing in the presence of 5% CO2 at 37° C. for six days, CellTiter-Glo 2.0 (from Promega) was added at 20 μL per well. After stirring with a plate mixer (from FINEPCR) at normal temperature for an hour, the luminescent signals were measured with ARVO X3 (from PerkinElmer).
With the signaling value in treatment with DMSO taken as 0% inhibition and with the signaling value in the medium alone without cells taken as 100% inhibition, the 50% inhibition values (IC50) were calculated by Sigmoid-Emax model nonlinear regression analysis.

[1] = KRAS G12D mutant-positive, 3D spheroid, six days, CellTiter-Glo 2.0

DC50 (RAS G12V)	IC50 (AsPC-1 cells; [1])	SMILES	IC50 (AsPC-1 cells)
26 nM	16 nM	CO[C@@H](C)COc1nc(N(C)[C@H]2CCN(C(=O)NCCN(C)C)C2)c2cc(C3CC3)c(-c3c(C)c(F)cc4[nH]ncc34)c(OCc3ccc(-c4cn([C@H](C(=O)N5C[C@H](O)C[C@H]5C(=O)N[C@@H](CO)c5ccc(-c6scnc6C)cc5)C(C)C)nn4)cc3)c2n1 (atropisomer, axis not shown) [Example 19]	–
11 nM	18 nM	CO[C@@H](C)COc1cc(OC2CN(C(=O)O[C@H]3C[C@@H](N(C)C)C3)C2)c2cc(C3CC3)c(-c3c(C)c(F)cc4[nH]ncc34)c(OCc3ccc(-c4cn([C@H](C(=O)N5C[C@H](O)C[C@H]5C(=O)N[C@@H](CO)c5ccc(-n6cncn6)cc5)C(C)C)nn4)cc3)c2n1 (atropisomer, axis not shown; (M)) [Example 13, (1s,3R)-3-(dimethylamino)cyclobutyl 3-({(7M)-6-cyclopropyl-7-(6-fluoro-5-methyl-1H-indazol-4-yl)-8-{[4-(1-{(2S)-1-[(2S,4R)-4-hydroxy-2-({(1R)-2-hydroxy-1-[4-(1H-1,2,4-triazol-1-yl)phenyl]ethyl}carbamoyl)pyrrolidin-1-yl]-3-methyl-1-oxobutan-2-yl}-1H-1,2,3-triazol-4-yl)phenyl]methoxy}-2-[(2S)-2-methoxypropoxy]quinolin-4-yl}oxy)azetidine-1-carboxylate]	–
8 nM	25 nM	Cc1ncsc1-c1ccc([C@H](CO)NC(=O)[C@@H]2C[C@@H](O)CN2C(=O)[C@H](C(C)C)n2cc(-c3ccc(COc4c(-c5c(C)c(F)cc6[nH]ncc56)c(C5CC5)cc5c(NCc6cccnc6)nc(OC6CCOCC6)nc45)cc3)nn2)cc1 [Example 29]	–
35 nM	43 nM	CO[C@@H](C)COc1nc(N2CCOCC2)c2cc(C3CC3)c(-c3c(C)c(F)cc4[nH]ncc34)c(OCc3ccc(-c4cn([C@H](C(=O)N5C[C@H](O)C[C@H]5C(=O)N[C@@H](CO)c5ccc(-c6scnc6C)cc5)C(C)C)nn4)cc3)c2n1 (atropisomer, axis not shown) [Example 21]	–

Second part, the compound before the results:

SMILES	DC50 (RAS G12V)	IC50 (AsPC-1 cells; [1])	IC50 (AsPC-1 cells)
CO[C@@H](C)COc1cc(OC2CN(C(=O)N3CC(CN(C)C)C3)C2)c2cc(C3CC3)c(-c3c(C)c(F)cc4[nH]ncc34)c(OCc3ccc(-c4cn([C@H](C(=O)N5C[C@H](O)C[C@H]5C(=O)N[C@@H](CO)c5ccc(-n6cncn6)cc5)C(C)C)nn4)cc3)c2n1 (atropisomer, axis not shown; (M)) [Example 5, (4R)-1-[(2S)-2-(4-{4-[({(7M)-6-cyclopropyl-4-[(1-{3-[(dimethylamino)methyl]azetidine-1-carbonyl}azetidin-3-yl)oxy]-7-(6-fluoro-5-methyl-1H-indazol-4-yl)-2-[(2S)-2-methoxypropoxy]quinolin-8-yl}oxy)methyl]phenyl}-1H-1,2,3-triazol-1-yl)-3-methylbutanoyl]-4-hydroxy-N-{(1R)-2-hydroxy-1-[4-(1H-1,2,4-triazol-1-yl)phenyl]ethyl}-L-prolinamide]	26 nM	8 nM	–
CO[C@@H](C)COc1nc(NC2CN(C(=O)O[C@H]3C[C@@H](N(C)C)C3)C2)c2cc(C3CC3)c(-c3c(C)c(F)cc4[nH]ncc34)c(OCc3ccc(-c4cn([C@H](C(=O)N5C[C@H](O)C[C@H]5C(=O)N[C@@H](CO)c5ccc(-c6scnc6C)cc5)C(C)C)nn4)cc3)c2n1 (atropisomer, axis not shown; (M)) [Example 11, (1s,3R)-3-(dimethylamino)cyclobutyl 3-({(7M)-6-cyclopropyl-7-(6-fluoro-5-methyl-1H-indazol-4-yl)-8-{[4-(1-{(2S)-1-[(2S,4R)-4-hydroxy-2-({(1R)-2-hydroxy-1-[4-(4-methyl-1,3-thiazol-5-yl)phenyl]ethyl}carbamoyl)pyrrolidin-1-yl]-3-methyl-1-oxobutan-2-yl}-1H-1,2,3-triazol-4-yl)phenyl]methoxy}-2-[(2S)-2-methoxypropoxy]quinazolin-4-yl}amino)azetidine-1-carboxylate]	13 nM	11 nM	–
CO[C@@H](C)COc1nc(OC2CN(C(=O)NCCN(C)C)C2)c2cc(C3CC3)c(-c3c(C)c(F)cc4[nH]ncc34)c(OCc3ccc(C(=O)N[C@H](C(=O)N4C[C@H](O)C[C@H]4C(=O)N[C@@H](CO)c4ccc(-c5scnc5C)cc4)C(C)C)cc3)c2n1 [Example 40, N-{4-[({(7M)-6-cyclopropyl-4-[(1-{[2-(dimethylamino)ethyl]carbamoyl}azetidin-3-yl)oxy]-7-(6-fluoro-5-methyl-1H-indazol-4-yl)-2-[(2S)-2-methoxypropoxy]quinazolin-8-yl}oxy)methyl]benzoyl}-L-valyl-(4R)-4-hydroxy-N-{(1R)-2-hydroxy-1-[4-(4-methyl-1,3-thiazol-5-yl)phenyl]ethyl}-L-prolinamide]	76 nM	–	62 nM
CO[C@@H](C)COc1cc(OC2CN(C(=O)NCCN(C)C)C2)c2cc(C3CC3)c(-c3c(C)c(F)cc4[nH]ncc34)c(OCc3ccc(-c4cn([C@H](C(=O)N5C[C@H](O)C[C@H]5C(=O)N[C@@H](CO)c5ccc(-n6cncn6)cc5)C(C)C)nn4)cc3)c2n1 (atropisomer, axis not shown; (M)) [Example 12, (4R)-1-[(2S)-2-(4-{4-[({(7M)-6-cyclopropyl-4-[(1-{[2-(dimethylamino)ethyl]carbamoyl}azetidin-3-yl)oxy]-7-(6-fluoro-5-methyl-1H-indazol-4-yl)-2-[(2S)-2-methoxypropoxy]quinolin-8-yl}oxy)methyl]phenyl}-1H-1,2,3-triazol-1-yl)-3-methylbutanoyl]-4-hydroxy-N-{(1R)-2-hydroxy-1-[4-(1H-1,2,4-triazol-1-yl)phenyl]ethyl}-L-prolinamide]	37 nM	17 nM	–
CO[C@@H](C)COc1nc(NC2CN(C(=O)O[C@H]3C[C@@H](N(C)C)C3)C2)c2cc(C3CC3)c(-c3c(C)c(F)cc4[nH]ncc34)c(OCc3ccc(-c4cn([C@H](C(=O)N5C[C@H](O)C[C@H]5C(=O)N[C@@H](CO)c5ccc(N6CCOC6=O)cc5)C(C)C)nn4)cc3)c2n1 (atropisomer, axis not shown) [Example 4]	45 nM	38 nM	–
